Experimental data published in patent US8198307B2, “Imidazole derivatives having aryl piperidine substituent, method for preparation thereof and pharmaceutical compositions containing same” (Korea Research Institute of Chemical Technology, priority 2007, dated 2012).
pIC50: −log10 of the molar value.

These molecules were tested against T1, MCH R1 (melanine-concentrating hormone receptor-1) (Homo sapiens, UniProt Q99705) (assay: Inhibitory effects on MCH R1 binding (Eu-MCH time-resolved fluorescence binding assay)). Conditions: concentration inhibiting the binding of MCH (Eu-MCH, 2 nM) to MCH R1 by 50% in vitro; TRF readout; test range 1 nM to 10 μM; read-out: IC50.
T1 construct: purchased Euroscreen, Gosselies, Belgium
Experimental: First, MCH R1 (melanine-concentrating hormone receptor-1; Euroscreen, Gosselies, Belgium), 1 μM Europium-labeled melanine-concentrating hormone (Eu-MCH, PerkinElmer, Turku, Finland) and 1 mM melanine-concentrating hormone (MCH, #070-47, Phoenix, Belmont Calif., USA) were kept at 4° C. for ready use. 1 μM Eu-MCH and 1 mM MCH were diluted with an experimental solution (25 mM HEPES pH 7.4, 5 mM MgCl2, 1 mM CaCl2 and 0.5% (w/w) BSA) to 8 nM (final reaction concentration: 2 nM) and 2 μM (final reaction concentration: 0.5 μM), respectively. The compounds prepared in the Examples (“Test compounds”) were dissolved in the experimental solution in concentration of 4 nM to 40 μM (final reaction concentration: 1 nM to 10 μM). MCH R1 (200 assays/vial) was homogeneously dispersed in the experimental solution.
Then, 100 μl/well of the following reaction mixture was added to the wells of a microplate (Multiwell 96 well filter plates PN5020, Pall Co., Ann Arbor, Mich., USA) equipped with a filter paper, with an 8-channel pipette (multi 8-channel, Eppendorf, Hamburg, Germany). Specifically, to the wells of a non-specific binding control group, 25 μl of Eu-MCH, 50 μl of MCH R1 and 25 μl of MCH were added. Further, 25 μl of the experimental solution supplemented with 10% (w/w) of DMSO, 25 μl of Eu-MCH and 50 μl of MCH R1 were added to the wells of a total binding control group, while 25 μl of the test compounds, 25 μl Eu-MCH and 50 μl of MCH R1 were added to the wells of an experimental group. Subsequently, the microplate was shaken gently for 15 seconds and kept at room temperature for 90 minutes to allow the reaction to take place. Then, the plate was washed with a microplate washer (EMBLA, Molecular Devices) by washing three times with 300 μl of a washing solution (25 mM HEPES pH 7.4, 5 mM MgCl2, 1 mM CaCl2) to remove the residual unreacted Eu-MCH. Moisture was removed from the bottom of the wells and 150 μl of dissociation solution (DELFIA Enhancement solution, PerkinElmer, Turku, Finland) was added to each well, followed by keeping the plate at room temperature for 2 to 4 hours. Subsequently, time-resolved fluorescence (TRF) values were measured with a multilabel counter (Victor2, PerkinElmer, Turku, Finland) (emission wave length: 615 nm, excitation wave length: 340 nm). The inhibition rate based on the time-resolved fluorescence data was calculated using the following Equation (I). Inhibition rate of time-resolved fluorescence (%)=[(Average TRF value of the total binding group−Time-resolved fluorescence value of the test compound)/(Average TRF value of the total binding group−Average TRF value of the non-specific binding group)]×100 (I)

T1 sequence (Q99705 whole entry, species assumed): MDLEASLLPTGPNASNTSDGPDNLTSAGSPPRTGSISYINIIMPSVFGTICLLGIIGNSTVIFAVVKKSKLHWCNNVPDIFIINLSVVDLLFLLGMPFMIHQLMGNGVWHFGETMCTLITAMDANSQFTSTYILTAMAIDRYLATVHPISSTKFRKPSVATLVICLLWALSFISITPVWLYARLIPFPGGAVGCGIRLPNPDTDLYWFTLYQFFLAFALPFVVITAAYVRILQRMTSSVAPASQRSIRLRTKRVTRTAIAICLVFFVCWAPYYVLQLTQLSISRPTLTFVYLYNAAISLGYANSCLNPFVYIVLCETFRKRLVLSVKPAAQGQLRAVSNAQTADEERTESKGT

SMILES | pIC50
CC(=O)Nc1cccc(C2CCN(CCCn3c(-c4ccc(F)cc4Cl)nc4cc(C)c(C)cc43)CC2)c1 [Example 80, 2-(2-chloro-4-fluorophenyl)-1-{3-[4-(3-acetylaminophenyl)piperidin-1-yl]propyl}-5,6-dimethyl-1H-benzimidazole] | 7.10
CC(=O)Nc1cccc(C2CCN(CCCn3c(-c4ccc(Cl)cc4)nc4ccc(Br)cc43)CC2)c1 [Example 36, 2-(4-chlorophenyl)-1-{3-[4-(3-acetylaminophenyl)piperidin-1-yl]propyl}-6-bromo-1H-benzimidazole] | 7.77
COc1cc(Cl)ccc1-c1nc2cc(C)c(C)cc2n1CCCN1CCC(c2cccc(NC(C)=O)c2)CC1 [Example 86, 2-(4-chloro-2-methoxyphenyl)-1-{3-[4-(3-acetylaminophenyl)piperidin-1-yl]propyl}-5,6-dimethyl-1H-benzimidazole] | 6.96
CC(=O)Nc1cccc(C2CCN(CCn3c(-c4ccccc4)nc4ccccc43)CC2)c1 [Example 1, 2-phenyl-1-{2-[4-(3-acetylaminophenyl)piperidin-1-yl]ethyl}-1H-benzimidazole] | < 5.00
CCCCc1nc2c(C)cc(C)nc2n1CCCN1CCC(c2cccc(NC(=O)C(C)C)c2)CC1 [Example 99, 2-butyl-5,7-dimethyl-3-{3-[4-(3-isobutyrylaminophenyl)piperidin-1-yl]propyl}-3H-imidazo[4,5-b]pyridine] | 7.40
CC(=O)Nc1cccc(C2CCN(CCCn3c(-c4ccccc4Cl)nc4ccc([N+](=O)[O-])cc43)CC2)c1 [Example 40, 2-(2-chlorophenyl)-1-{3-[4-(3-acetylaminophenyl)piperidin-1-yl]propyl}-6-nitro-1H-benzimidazole] | 7.09
COc1ccc(-c2nc3ccccc3n2CCCN2CCC(c3cccc(NC(C)=O)c3)CC2)c(OC)c1 [Example 58, 2-(2,4-dimethoxyphenyl)-1-{3-[4-(3-acetylaminophenyl)piperidin-1-yl]propyl}-1H-benzimidazole] | 7.66
CC(=O)Nc1cccc(C2CCN(CCCn3c(-c4cccc(Cl)c4)nc4ccc(Cl)cc43)CC2)c1 [Example 35, 2-(3-chlorophenyl)-1-{3-[4-(3-acetylaminophenyl)piperidin-1-yl]propyl}-6-chloro-1H-benzimidazole] | 8.15
CC(=O)Nc1cccc(C2CCN(CCCn3c(-c4ccccc4)nc4nc(C)ccc43)CC2)c1 [Example 75] | 7.64
CC(=O)Nc1cccc(C2CCN(CCCn3c(-c4ccc(Cl)cc4)nc4cc(F)ccc43)CC2)c1 [Example 83, 2-(4-chlorophenyl)-1-{3-[4-(3-acetylaminophenyl)piperidin-1-yl]propyl}-5-fluoro-1H-benzimidazole] | 7.15
CC(=O)Nc1cccc(C2CCN(CCCn3c(-c4ccc(Cl)cc4)nc4ccc(Cl)cc43)CC2)c1 [Example 25, 2-(4-chlorophenyl)-1-{3-[4-(3-acetylaminophenyl)piperidin-1-yl]propyl}-6-chloro-1H-benzimidazole] | 7.89
CC(=O)Nc1cccc(C2CCN(CCCn3c(-c4ccccc4)nc4ccc(F)cc43)CC2)c1 [Example 26, 2-phenyl-1-{3-[4-(3-acetylaminophenyl)piperidin-1-yl]propyl}-6-fluoro-1H-benzimidazole] | 8.15
CC(=O)Nc1cccc(C2CCN(CCCn3c(-c4ccccc4)nc4ccc(Cl)cc43)CC2)c1 [Example 29, 2-phenyl-1-{3-[4-(3-acetylaminophenyl)piperidin-1-yl]propyl}-6-chloro-1H-benzimidazole] | 8.00
CC(=O)Nc1cccc(C2CCN(CCCCn3c(-c4ccccc4)nc4ccccc43)CC2)c1 [Example 5, 2-phenyl-1-{4-[4-(3-acetylaminophenyl)piperidin-1-yl]butyl}-1H-benzimidazole] | 7.54
CC(=O)Nc1cccc(C2CCN(CCCn3c(-c4ccccc4)nc4nc(C)c(Br)cc43)CC2)c1 [Example 74] | 6.17
CC(=O)Nc1cccc(C2CCN(CCCn3c(-c4ccc(Cl)cc4)nc4ccc(F)cc43)CC2)c1 [Example 31, 2-(4-chlorophenyl)-1-{3-[4-(3-acetylaminophenyl)piperidin-1-yl]propyl}-6-fluoro-1H-benzimidazole] | 7.96
CC(=O)Nc1cccc(C2CCN(CCCn3c(-c4cccc(C(N)=O)c4)nc4ccccc43)CC2)c1 [Example 62, 2-(3-carbamoylphenyl)-1-{3-[4-(3-acetylaminophenyl)piperidin-1-yl]propyl}-1H-benzimidazole] | 7.96
CC(=O)Nc1cccc(C2CCN(CCCCn3c(-c4ccc(Cl)cc4)nc4ccccc43)CC2)c1 [Example 6, 2-(4-chlorophenyl)-1-{4-[4-(3-acetylaminophenyl)piperidin-1-yl]butyl}-1H-benzimidazole] | 9.00
CC(=O)Nc1cccc(C2CCN(CCCn3c(-c4ccc(Br)cc4)nc4ccccc43)CC2)c1 [Example 11, 2-(4-bromophenyl)-1-{3-[4-(3-acetylaminophenyl)piperidin-1-yl]propyl}-1H-benzimidazole] | 8.30
CC(=O)Nc1cccc(C2CCN(CCCn3c(-c4ccc(C#N)cc4)nc4ccccc43)CC2)c1 [Example 51, 2-(4-cyanophenyl)-1-{3-[4-(3-acetylaminophenyl)piperidin-1-yl]propyl}-1H-benzimidazole] | 7.80
CCCCc1nc2cc(Br)c(C)nc2n1CCCN1CCC(c2cccc(NC(=O)C(C)C)c2)CC1 [Example 98, 6-bromo-2-butyl-5-methyl-3-{3-[4-(3-isobutyrylaminophenyl)piperidin-1-yl]propyl}-3H-imidazo[4,5-b]pyridine] | 9.00
CC(=O)Nc1cccc(C2CCN(CCCCCn3c(-c4ccc(Cl)cc4)nc4ccccc43)CC2)c1 [Example 8, 2-(4-chlorophenyl)-1-{5-[4-(3-acetylaminophenyl)piperidin-1-yl]pentyl}-1H-benzimidazole] | 7.49
CC(=O)Nc1cccc(C2CCN(CCCn3c(-c4cccnc4)nc4cc([N+](=O)[O-])ccc43)CC2)c1 [Example 117, 5-nitro-2-(pyridin-3-yl)-1-{3-[4-(3-acetamidophenyl)piperidin-1-yl]propyl}-1H-benzimidazole] | 8.52
CCc1ccc(-c2nc3ccccc3n2CCCN2CCC(c3cccc(NC(C)=O)c3)CC2)cc1 [Example 77, 2-(4-ethylphenyl)-1-{3-[4-(3-acetylaminophenyl)piperidin-1-yl]propyl}-1H-benzimidazole] | 7.22
CC(=O)Nc1cccc(C2CCN(CCCn3c(-c4ccc(Cl)cc4)nc4ccc(C)cc43)CC2)c1 [Example 24, 2-(4-chlorophenyl)-1-{3-[4-(3-acetylaminophenyl)piperidin-1-yl]propyl}-6-methyl-1H-benzimidazole] | 8.00
CC(C)C(=O)Nc1cccc(C2CCN(CCn3c(-c4ccc(Cl)cc4)nc4ccccc43)CC2)c1 [Example 71, 2-(4-chlorophenyl)-1-{2-[4-(3-isobutyrylaminophenyl)piperidin-1-yl]ethyl}-1H-benzimidazole] | < 5.00
CC(=O)Nc1cccc(C2CCN(CCCn3c(-c4cscn4)nc4ccccc43)CC2)c1 [Example 122, 2-(thiazol-4-yl)-1-{3-[4-(3-acetamidophenyl)piperidin-1-yl]propyl}-1H-benzimidazole] | 6.51
COc1ccc2nc(-c3ccc(Cl)cc3)n(CCCN3CCC(c4cccc(NC(C)=O)c4)CC3)c2c1 [Example 28, 2-(4-chlorophenyl)-1-{3-[4-(3-acetylaminophenyl)piperidin-1-yl]propyl}-6-methoxy-1H-benzimidazole] | 7.26
CC(=O)Nc1cccc(C2CCN(CCCn3c(-c4ccc(F)cc4)nc4ccc(Cl)cc43)CC2)c1 [Example 30, 2-(4-fluorophenyl)-1-{3-[4-(3-acetylaminophenyl)piperidin-1-yl]propyl}-6-chloro-1H-benzimidazole] | 7.89
CC(=O)Nc1cccc(C2CCN(CCCn3c(-c4ccccc4)nc4ccc(C)cc43)CC2)c1 [Example 23, 2-phenyl-1-{3-[4-(3-acetylaminophenyl)piperidin-1-yl]propyl}-6-methyl-1H-benzimidazole] | 7.80
